{"source": "paper PMC5278571", "about": "“Optimal doses of caspofungin during continuous venovenous hemodiafiltration in critically ill patients” (Critical Care, 2017)", "origin": "cited, not measured here", "details_in_all_cases": "murine model of disseminated candidiasis; cited from earlier work", "key": {"Candida albicans": {"system": "Candida albicans", "procedure": "(§1) Taking into account a MIC of 0.1 mg/L [4], and using the target pharmacokinetics/pharmacodynamics (PK/PD) described for micafungin, we would have reac ..."}, "C. parapsilosis": {"system": "C. parapsilosis", "procedure": "as §1"}, "Candida glabrata": {"system": "Candida glabrata", "procedure": "as §1"}}, "data": [{"substance": "micafungin", "values": [{"measurement": "AUC/MIC associated with 1 log kill/24 h", "setting": "Candida albicans", "value": 865}, {"measurement": "AUC/MIC associated with 1 log kill/24 h", "setting": "C. parapsilosis", "value": 1185}, {"measurement": "AUC/MIC associated with 1 log kill/24 h", "setting": "Candida glabrata", "value": 450}]}]}
